The source of these data is paper PMC6169004, “In vitro pro-inflammatory enzyme inhibition and anti-oxidant potential of selected Sri Lankan medicinal plants” (BMC Complementary and Alternative Medicine, 2018).

This assay has as its target T1, A5-LOX (soybean); arachidonate-5-lipoxygenase.
T1 construct: gene LOX1.1; most likely lipoxygenase-1
As to the kind of experiment: spectrophotometric, absorbance at […] nm. The class given is biochemical, Glycine max. The settings on record: linoleic acid substrate ([…] μL of […]), sodium phosphate pH […] °C, […] min preincubation.

With `O=c1cc(-c2ccccc2)oc2cc(O)c(O)c(O)c12` [Baicalein], the “Anti-A5-LOX activity IC50 (μg mL^- 1)” value came out at 1.76 ± 0.15 μg mL^− 1.
